Entries after “also recorded” stand apart in the source; their conditions may differ. Read-outs that look alike come from different tables or passages of the source.
Tests used:
[1] = system: circulatory function of rats; details: rat, in vivo
Description: First, animal models were established. […] At least one week after surgery, data were recorded.
Finally, the pharmacological effects, adverse reactions, and behavioral manifestations of the rats were observed and recorded
After data acquisition, the test was stopped.

Sprague-Dawley rats [2] = assay: Pharmacological effect and adverse reactions under the equivalent dose (2ED50), Group D compounds; format: in vivo; details: rat, in vivo
Description: (§1) Evaluation index: onset time: from the completion of drug injection to the disappearance of forepaw righting reflex in rats; Duration of anesthesia: the time from the disappearance of rat forepaw righting reflex to the recovery of rat forepaw righting reflex; Recovery time of anesthesia: the time from the […] to complete recovery;

H295R cell line [3] = assay: Adrenocortical function in vitro test: secretion of cortisol and corticosterone, Group B compounds; format: cell-based; details: H295R cells; for EC50: Homo sapiens, NCI-H295R, 0.1-10000 nM, HPLC-MS/MS
Sprague-Dawley rats [4] = assay: Pharmacological effect and adverse reactions under the equivalent dose (2ED50), Group C compounds; format: in vivo; details: rat, in vivo
Description: as §1

[5] = system: circulatory function of rats; details: rat, in vivo; remark: listed apart in the source
[6] = system: circulatory function of rats; assay: Circulatory function of rats (MAP, HR) by implanted telemetry, Group C compounds; details: 2ED50, rats, FIG. 13-16
Description: (§4) First, the animal model was established, and the left ventricular catheter, abdominal aorta catheter and electrocardiogram wire were placed. At least one week after the operation, the signal can be collected to start the test. At the beginning of the experiment, after the placement of the indwelling needle in the tail vein of rats, connect the extension tube, put the rats together with the feeding cage on the signal receiver and start collecting data. […] All compounds or drugs were given at a constant volume of 0.6 ml at a uniform rate of 0.1 ml/s.

Sprague-Dawley rats [7] = assay: animal or person; format: in vivo
Description: (§2) Evaluating indicator: The end point of anesthesia: the disappearance of forepaw righting reflex (lorr) was used as the end point of anesthesia; General anesthesia effect: the disappearance of forepaw righting reflex in rats lasting for 30 seconds is taken as the index of general anesthesia effect; Anesthesia recovery index: the recovery of rat forepaw righting reflex was used as the index of anesthesia recovery.

H295R cell line [8] = assay: Adrenocortical function in vitro test: secretion of cortisol and corticosterone, Group A compounds; format: cell-based; details: H295 cells; for EC50: Homo sapiens, 0.1-10000 nM, HPLC-MS/MS
[9] = system: circulatory function of rats; assay: Circulatory function of rats (MAP, HR) by implanted telemetry, Group D compounds; details: 2ED50, rats, FIG. 19-22
Description: as §4
Evaluation indexes: Collect the blood pressure, heart rate and other data of rats during and 15 minutes after administration, and judge the effect of the compound of the invention on the circulatory function of rats with the indexes of mean arterial pressure (MAP) and heart rate (HR).

Sprague-Dawley rats [10] = assay: animal or person
Description: (§3) Adult male Sprague-Dawley rats (250-300 g) were selected for the experiment. […] The anesthesia effects of the compounds were assessed in rats using a LORR assay and a period >30 s was considered as an indicator of general anesthesia.

Sprague-Dawley rats [11] = assay: animal or person; remark: listed apart in the source
Description: as §3

Sprague-Dawley rats [12] = assay: Pharmacological characteristics at equivalent doses (2ED50), Group A compounds; format: in vivo; details: 2ED50, tail vein
Sprague-Dawley rats [13] = assay: animal or person; format: in vivo; remark: listed apart in the source
Description: as §2, with “LORR” for “the disappearance of forepaw righting reflex (lorr)”

[14] = read-out: EC50 (Corticosterone)
[15] = male, Sprague-Dawley, rat, in vivo

CC(C)c1cccc(C(C)C)c1O [Propofol, propofol, reference compound]
inhibitory effect on the circulatory function (MAP, HR) [1]: significant inhibition of the circulatory function | Adverse reaction: Convulsions (Sprague-Dawley rats [2]): 0 | Adverse reaction: Cough, broken-winded (Sprague-Dawley rats [2]): 0 | Adverse reaction: Euphoria (Sprague-Dawley rats [2]): 0 | Adverse reaction: Four limbs rigidity (Sprague-Dawley rats [2]): 1 | Adverse reaction: Slower breathing, Tetany convulsion (Sprague-Dawley rats [2]): 2 | Adverse reaction: Systemic stiffness, Convulsions, Opisthotonus (Sprague-Dawley rats [2]): 0 | Adverse reaction: Tongue stretching (Sprague-Dawley rats [2]): 0 | Adverse reaction: Tremor (Sprague-Dawley rats [2]): 2 | Onset time (Sprague-Dawley rats [2]): <30 s | Righting reflex duration (Sprague-Dawley rats [2]): 8.53 ± 1.52 min | Sedation duration (Sprague-Dawley rats [2]): 14.77 ± 3.50 min | Corticosterone as an indicator to determine the presence of inhibition (H295R cell line [3]): 0 | Cortisol as an indicator to determine the presence of inhibition (H295R cell line [3]): 0 | EC50 (H295R cell line [3]; [14]): > 10 µM | EC50 (H295R cell line [3]; read-out: EC50 (Cortisol)): > 10 µM | Adverse reaction: Convulsions (Sprague-Dawley rats [4]): 0 | Adverse reaction: Cough, broken-winded (Sprague-Dawley rats [4]): 0 | Adverse reaction: Euphoria (Sprague-Dawley rats [4]): 0 | Adverse reaction: Slower breathing, Tetany convulsion (Sprague-Dawley rats [4]): 2 | Adverse reaction: Systemic stiffness, Convulsions, Opisthotonus (Sprague-Dawley rats [4]): 0 | Adverse reaction: Tongue stretching (Sprague-Dawley rats [4]): 0 | Adverse reaction: Tremor (Sprague-Dawley rats [4]): 0 | Adverse reaction: the four limbs rigidity (Sprague-Dawley rats [4]): 2 | Onset time (Sprague-Dawley rats [4]): <30 s | Righting reflex duration (Sprague-Dawley rats [4]): 8.53 ± 1.52 min | Sedation duration (Sprague-Dawley rats [4]): 14.77 ± 3.50 min | inhibitory effect on the circulatory function (MAP, HR) [5]: significant inhibition of the circulatory function | effect on the circulatory function (MAP, HR) [6]: significant inhibition on the circulatory system function | ED50 (Sprague-Dawley rats [7]; Rattus norvegicus): 5.01 mg/kg | Minimal lethal dose (Sprague-Dawley rats [7]; [15]): 22.6 mg/kg | Approximate therapeutic index (Sprague-Dawley rats [7]; rats): 4.0 | Corticosterone as an indicator to determine the presence of inhibition (H295R cell line [8]): 0 | Cortisol as an indicator to determine the presence of inhibition (H295R cell line [8]): 0 | EC50 (H295R cell line [8]; [14]): > 10 µM | EC50 (H295R cell line [8]; read-out: EC50 (Cortisol)): > 10 µM | effect on the circulatory function (MAP, HR) [9]: significant inhibition on the circulatory system function | ED50 (Sprague-Dawley rats [10]; Rattus norvegicus): 5.51 mg/kg | Minimal lethal dose (Sprague-Dawley rats [10]; [15]): 28 mg/kg | Approximate therapeutic index (Sprague-Dawley rats [10]; rats): 5 | ED50 (Sprague-Dawley rats [11]; Rattus norvegicus): 5.51 mg/kg | Minimal lethal dose (Sprague-Dawley rats [11]; [15]): 28 mg/kg | Approximate therapeutic index (Sprague-Dawley rats [11]; rats): 5 | Onset time (Sprague-Dawley rats [12]): 0.19 ± 0.03 min | Righting reflex duration (Sprague-Dawley rats [12]): 8.36 ± 2 min | Types and incidence of adverse reactions (Sprague-Dawley rats [12]; (animals affected/animals)): Intermittent Tremor(6/8),; also recorded: Bucking (5/8),; also recorded: Tongue stretching(4/8),; also recorded: Forelimb rigidity (2/8),; also recorded: Hindlimb rigidity(2/8) | ED50 (Sprague-Dawley rats [13]; Rattus norvegicus): 5.01 mg/kg | Minimal lethal dose (Sprague-Dawley rats [13]; [15]): 22.6 mg/kg | Approximate therapeutic index (Sprague-Dawley rats [13]; rats): 4.0
